Laboratory results as given in patent US20220144775A1, “HYDRAZIDE COMPOUND AND KINASE INHIBITOR” (NISSAN CHEMICAL CORPORATION, priority 2019, published 2022).

Legend:
LATS2 = target: T1, LATS2 (Homo sapiens, UniProt Q9NRM7); assay: Kinase inhibitory activity against LATS2 (ADP quantification); format: biochemical; settings: ATP 400 μM, read-out: kinase inhibitory rate
T1 construct: purchased Carna Biosciences
T1 sequence (Q9NRM7 1-1088): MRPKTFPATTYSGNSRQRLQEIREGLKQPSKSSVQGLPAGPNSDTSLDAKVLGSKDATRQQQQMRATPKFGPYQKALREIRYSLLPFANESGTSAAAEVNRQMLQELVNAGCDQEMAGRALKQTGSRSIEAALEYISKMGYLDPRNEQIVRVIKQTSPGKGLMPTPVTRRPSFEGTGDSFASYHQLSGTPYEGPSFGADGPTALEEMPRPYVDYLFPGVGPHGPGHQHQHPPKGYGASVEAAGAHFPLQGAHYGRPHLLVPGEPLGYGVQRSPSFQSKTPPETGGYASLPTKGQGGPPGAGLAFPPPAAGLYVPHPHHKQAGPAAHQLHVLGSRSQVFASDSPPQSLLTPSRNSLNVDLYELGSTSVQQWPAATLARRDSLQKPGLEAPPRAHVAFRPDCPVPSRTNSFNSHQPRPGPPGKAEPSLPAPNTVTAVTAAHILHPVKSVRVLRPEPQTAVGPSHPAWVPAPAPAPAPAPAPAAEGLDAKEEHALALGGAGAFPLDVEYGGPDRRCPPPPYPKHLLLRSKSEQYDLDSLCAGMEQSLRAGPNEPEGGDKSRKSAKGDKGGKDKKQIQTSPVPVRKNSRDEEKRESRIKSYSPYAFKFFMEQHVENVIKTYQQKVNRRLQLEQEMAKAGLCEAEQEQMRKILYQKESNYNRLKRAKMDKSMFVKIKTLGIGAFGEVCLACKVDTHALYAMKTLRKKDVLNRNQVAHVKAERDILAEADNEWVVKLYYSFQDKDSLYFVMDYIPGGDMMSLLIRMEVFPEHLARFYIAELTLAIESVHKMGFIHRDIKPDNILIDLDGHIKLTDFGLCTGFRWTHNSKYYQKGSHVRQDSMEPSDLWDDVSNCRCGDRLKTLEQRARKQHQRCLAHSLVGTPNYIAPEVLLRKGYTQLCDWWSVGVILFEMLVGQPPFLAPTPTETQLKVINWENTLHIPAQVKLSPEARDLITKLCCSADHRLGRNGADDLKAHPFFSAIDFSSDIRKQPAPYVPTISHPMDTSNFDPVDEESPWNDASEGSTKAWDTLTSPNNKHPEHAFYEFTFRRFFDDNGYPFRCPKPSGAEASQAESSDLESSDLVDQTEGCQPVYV
Procedure: (§1) Evaluation of the inhibitory activity (calculation of kinase inhibitory rate) of the compound of the present invention against LATS1 and LATS2 (manufactured by Carna Biosciences) was performed. The activity was measured using the Kinase Assay method described below. The test concentration of the compound of the present invention was set such that the final concentration was 100 nM or 1000 nM.
(§2) As the analysis method of the data, the mean signal of the control well containing reaction components other than the compound of the present invention was set to 0% inhibition, the mean signal without enzyme addition was set to 100% inhibition, and the inhibition rate was calculated from the mean signal of 2 wells of each compound.
(§3) 2 μL of a compound of the present invention solution at 2.5-fold concentration, 1 μL of substrate at 5-fold concentration (SGKtide: NH2-CKKRNRRLSVA-COOH, manufactured by SignalChem), ATP (manufactured by Sigma-Aldrich), MgCl2 (manufactured by FUJIFILM Wako Pure Chemical Corporation) solution (final concentration 10 μM, 400 μM and 5 mM, respectively), and 2 μL of kinase solution at 2.5-fold concentration (final concentration of LATS1 or LATS2 5 μg/mL), each prepared with assay buffer (20 mM HEPES, 0.01% Triton X-100, 2 mM DTT, 50 μg/mL BSA, pH 7.5), were mixed in the wells of a polypropylene 384-well plate (manufactured by Greiner Bio-One, #784900) and reacted at room temperature for 5 hr. To the solution was added 5 μL detection solution [Fluorospark (registered trade mark) Kinase/ADP Multi-Assay Kit; manufactured by FUJIFILM Wako Pure Chemical Corporation], and the mixture was reacted at room temperature for 30 min. Successively, 5 μL of a reaction quenching liquid [Fluorospark (registered trade mark) Kinase/ADP Multi-Assay Kit; manufactured by FUJIFILM Wako Pure Chemical Corporation] was added to discontinue the reaction. Thereafter, the ADP concentration of the reaction solution was quantified by EnSpire (manufactured by PerkinElmer) to detect the kinase reaction.

LATS1 = target: T2, LATS1 (Homo sapiens, UniProt O95835); assay: Kinase inhibitory activity against LATS1 (ADP quantification); format: biochemical; settings: ATP 400 μM, read-out: kinase inhibitory rate
T2 construct: purchased Carna Biosciences
T2 sequence (O95835 1-1130): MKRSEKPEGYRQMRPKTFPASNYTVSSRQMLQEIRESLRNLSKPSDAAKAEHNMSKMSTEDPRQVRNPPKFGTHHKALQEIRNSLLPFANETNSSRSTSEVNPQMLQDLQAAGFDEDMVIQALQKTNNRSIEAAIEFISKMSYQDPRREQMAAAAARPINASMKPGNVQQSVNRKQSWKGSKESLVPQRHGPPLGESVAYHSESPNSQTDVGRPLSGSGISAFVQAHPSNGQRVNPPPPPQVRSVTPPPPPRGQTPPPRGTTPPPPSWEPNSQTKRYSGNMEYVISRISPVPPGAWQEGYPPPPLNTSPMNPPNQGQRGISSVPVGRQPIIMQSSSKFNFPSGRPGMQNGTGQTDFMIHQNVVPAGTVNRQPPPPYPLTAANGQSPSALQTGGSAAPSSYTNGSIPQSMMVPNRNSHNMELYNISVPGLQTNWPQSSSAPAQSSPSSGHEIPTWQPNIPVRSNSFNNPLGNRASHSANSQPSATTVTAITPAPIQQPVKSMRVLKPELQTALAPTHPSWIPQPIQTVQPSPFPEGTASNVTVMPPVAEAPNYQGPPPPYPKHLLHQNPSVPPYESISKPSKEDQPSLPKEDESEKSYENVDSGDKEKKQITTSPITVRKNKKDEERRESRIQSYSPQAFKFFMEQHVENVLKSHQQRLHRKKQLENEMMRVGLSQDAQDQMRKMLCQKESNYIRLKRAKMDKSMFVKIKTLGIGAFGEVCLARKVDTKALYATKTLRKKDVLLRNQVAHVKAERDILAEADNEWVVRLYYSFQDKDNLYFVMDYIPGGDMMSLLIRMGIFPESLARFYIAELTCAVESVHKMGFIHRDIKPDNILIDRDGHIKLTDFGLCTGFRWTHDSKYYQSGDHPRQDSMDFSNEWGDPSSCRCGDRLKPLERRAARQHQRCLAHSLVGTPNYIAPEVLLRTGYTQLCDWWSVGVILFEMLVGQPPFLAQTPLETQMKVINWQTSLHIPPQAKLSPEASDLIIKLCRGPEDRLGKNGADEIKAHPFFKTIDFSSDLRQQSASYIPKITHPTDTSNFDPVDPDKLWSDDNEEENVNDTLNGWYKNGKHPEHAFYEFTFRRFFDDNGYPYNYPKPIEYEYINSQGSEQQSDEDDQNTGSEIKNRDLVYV
Procedure: as §1, §2, §3

CC/C(=N\NC(=O)C(C)Nc1cccnc1)c1ccc(O)c(C)c1O (stereo not shown) [A-004, (E)-N′-(1-(2,4-dihydroxy-3-methylphenyl)propylidene)-2-(pyridin-3-ylamino)propanehydrazide]
≥ 40%: inhibition at 0.1 µM (LATS2; final concentration 100 nM) | inhibition at 1 µM (LATS2; final concentration 1000 nM) | inhibition at 0.1 µM (LATS1; final concentration 100 nM) | inhibition at 1 µM (LATS1; final concentration 1000 nM)
